The results in this text go back to US12516024B2, “KDM4 inhibitors” (ALBERT-LUDWIGS-UNIVERSITY FREIBURG, priority 2017, dated 2026).

In one data set the target is KDM5B (Homo sapiens, UniProt Q9UGL1). In words: KDM demethylase inhibition (IC50), KDM5B. It is filed as biochemical. The settings on record: in words. As for the experimental part:
The expression levels in the BCSC cells of the various KDM4 family members were evaluated by western blot analysis. Metzger et al., LSD1 demethylates repressive histone marks to promote and rogen receptor-dependent transcription, 437 Nature 436 (2005). […] These observations indicate that KDM4 are therapeutic targets for treatment of BCSC populations. Accordingly, a screen to characterize KDM4(i) was performed to explore compounds suitable for treating cancers, in particular cancers such as therapy resistant clonal BCSC-originating tumors.

A short description of data set [1]: Pharmacokinetic study iv/po. In kind it is in vivo. The settings on record: dose iv/po 5/10 mg/kg.

Sequence of KDM5B (Q9UGL1 whole entry): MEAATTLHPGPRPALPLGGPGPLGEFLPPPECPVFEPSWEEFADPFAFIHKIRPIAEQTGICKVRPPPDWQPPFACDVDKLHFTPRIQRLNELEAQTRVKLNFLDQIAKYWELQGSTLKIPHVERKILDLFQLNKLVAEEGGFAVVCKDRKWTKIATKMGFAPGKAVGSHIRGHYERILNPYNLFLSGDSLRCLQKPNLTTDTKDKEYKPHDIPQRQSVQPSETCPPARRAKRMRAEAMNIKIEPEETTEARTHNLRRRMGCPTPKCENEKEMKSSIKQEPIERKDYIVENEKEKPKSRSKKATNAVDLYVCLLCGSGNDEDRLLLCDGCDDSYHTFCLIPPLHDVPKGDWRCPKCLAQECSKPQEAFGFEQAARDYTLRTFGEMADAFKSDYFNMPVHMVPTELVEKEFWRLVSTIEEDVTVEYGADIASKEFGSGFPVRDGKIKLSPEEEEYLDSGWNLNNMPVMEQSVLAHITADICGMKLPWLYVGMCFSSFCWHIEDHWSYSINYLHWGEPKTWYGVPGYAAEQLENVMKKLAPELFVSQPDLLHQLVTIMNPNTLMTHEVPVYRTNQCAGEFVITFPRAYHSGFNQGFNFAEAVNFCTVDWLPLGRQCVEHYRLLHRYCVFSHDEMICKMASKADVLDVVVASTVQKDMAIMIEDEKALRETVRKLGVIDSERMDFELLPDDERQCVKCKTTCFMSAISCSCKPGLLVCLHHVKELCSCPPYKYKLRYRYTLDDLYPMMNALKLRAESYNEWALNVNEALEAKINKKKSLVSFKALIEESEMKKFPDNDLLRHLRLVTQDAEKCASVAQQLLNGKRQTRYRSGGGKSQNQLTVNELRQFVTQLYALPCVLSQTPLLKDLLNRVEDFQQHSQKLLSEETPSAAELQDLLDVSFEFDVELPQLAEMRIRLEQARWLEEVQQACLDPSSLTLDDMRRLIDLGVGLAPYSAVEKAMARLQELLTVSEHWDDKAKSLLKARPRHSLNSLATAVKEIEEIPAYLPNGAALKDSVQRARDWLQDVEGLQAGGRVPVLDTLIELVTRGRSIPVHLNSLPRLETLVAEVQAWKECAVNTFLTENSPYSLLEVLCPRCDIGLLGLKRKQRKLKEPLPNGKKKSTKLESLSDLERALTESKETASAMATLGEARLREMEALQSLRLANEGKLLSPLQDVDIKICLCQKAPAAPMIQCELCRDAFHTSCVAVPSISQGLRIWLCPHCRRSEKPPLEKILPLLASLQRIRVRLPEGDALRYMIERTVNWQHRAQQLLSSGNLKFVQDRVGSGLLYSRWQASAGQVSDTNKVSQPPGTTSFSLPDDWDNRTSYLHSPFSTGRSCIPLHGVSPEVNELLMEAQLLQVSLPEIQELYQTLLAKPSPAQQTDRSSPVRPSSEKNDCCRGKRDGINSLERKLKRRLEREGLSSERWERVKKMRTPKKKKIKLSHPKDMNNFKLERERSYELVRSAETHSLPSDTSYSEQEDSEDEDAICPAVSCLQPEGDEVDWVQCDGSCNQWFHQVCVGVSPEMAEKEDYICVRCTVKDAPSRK

By bioavailability is commonly meant the share of a dose that reaches the circulation, judged against a reference dose that is usually intravenous. As for `CN(c1ccccc1)c1ccc2c(c1)CCC[C@H]2CNc1cnccc1C(=O)O` [Compound I, 3-({[(1R)-6-[methyl(phenyl)amino]-1,2,3,4-tetrahydronaphthalen-1-yl]methyl}amino)pyridine-4-carboxylic acid], the “effect on the demethylase activity of KDM5B” value at KDM5B is “weak effect”. In data set [1] (plasma, read-out: F % (bioavailability)), the bioavailability was 30.4%. In addition, the “po ½” value in data set [1] (po) was 2.57 h.
